Measured values from patent US12435060B2, “Acylamino bridged heterocyclic compound, and composition and application thereof” (BEIJING SCITECH-MQ PHARMACEUTICALS LIMITED, priority 2019, dated 2025).

Test system: HT29 cells
Assay: Inhibition of cell necrosis (CCK8 method), induced programmed necrosis of HT29 cells
Format: cell-based
Details: Homo sapiens, HT-29; rescue from necrosis induced by TNF-α 20 ng/mL, AT-406 1 μM, Z-VAD-FMK 20 μM; 16-20 hours; CCK-8, OD 450 nm
Method in brief: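 HT29 cells in McCOY's 5A with 10% FBS were pre-treated for 30 min with compound (9 fourfold steps, 25000 to 0.38 nM final, 0.25% DMSO). Necrosis was then induced with TNF-α 20 ng/mL, AT-406 1 μM and Z-VAD-FMK 20 μM for 16-20 h. Viability was read by CCK-8 OD450, normalized between uninduced and induced wells, and IC50 was curve-fitted.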

Compound | IC50 [nM]
COc1ccc(C(F)(F)F)cc1-c1ccnc(NC(=O)c2nnc(Cc3ccccc3)[nH]2)c1 [Example 19, 5-benzyl-N-(4-(2-methoxy-5-(trifluoromethyl)phenyl)pyridin-2-yl)-4H-1,2,4-triazole-3-carboxamide] | 1000 to 10000
O=C(Nc1cc(-c2cc(OCCC3CCOCC3)ccc2Cl)ncn1)c1nnc(Cc2ccccc2F)[nH]1 [Example 471, N-(6-(2-chloro-5-(2-(tetrahydro-2H-pyran-4-yl)ethoxy)phenyl)pyrimidin-4-yl)-5-(2-fluorobenzyl)-4H-1,2,4-triazole-3-carboxamide] | ≤ 100
CCc1ccc(F)c(Cc2nnc(C(=O)Nc3cc(-c4cc(OCCCC(C)(C)O)ccc4Cl)ccn3)[nH]2)c1 [Example 350, N-(4-(2-chloro-5-((4-hydroxy-4-methylpentyl)oxy)phenyl)pyridin-2-yl)-5-(5-ethyl-2-fluorobenzyl)-4H-1,2,4-triazole-3-carboxamide] | 100 to 1000
COCCOc1ccccc1-c1ccnc(NC(=O)c2nnc(Cc3ccccc3)[nH]2)c1 [Example 126, 5-benzyl-N-(4-(2-(2-methoxyethoxy)phenyl)pyridin-2-yl)-4H-1,2,4-triazole-3-carboxamide] | 1000 to 10000
Cc1ccc(OCCCCCO)cc1-c1ccnc(NC(=O)c2nnc(CC3CCCC3)[nH]2)c1 [Example 224, 5-(cyclopentylmethyl)-N-(4-(5-((5-hydroxypentyl)oxy)-2-methylphenyl)pyridin-2-yl)-4H-1,2,4-triazole-3-carboxamide] | ≤ 100
Cc1ccc(OCCC2CCOCC2)cc1-c1cc(NC(=O)c2nnc(Cc3ccccc3F)[nH]2)ncc1F [Example 498, N-(5-fluoro-4-(2-methyl-5-(2-(tetrahydro-2H-pyran-4-yl)ethoxy)phenyl)pyridin-2-yl)-5-(2-fluorobenzyl)-4H-1,2,4-triazole-3-carboxamide] | ≤ 100
Cc1ccc(OCCCC(C)(C)O)cc1-c1ccnc(NC(=O)c2nnc(Cc3cc(F)ccc3F)[nH]2)c1 [Example 203, 5-(2,5-difluorobenzyl)-N-(4-(5-((4-hydroxy-4-methylpentyl)oxy)-2-methylphenyl)pyridin-2-yl)-4H-1,2,4-triazole-3-carboxamide] | ≤ 100
Cc1cnccc1-c1ccnc(NC(=O)c2nnc(Cc3ccccc3)[nH]2)c1 [Example 24, 5-benzyl-N-(3′-methyl-[4,4′-bipyridin]-2-yl)-4H-1,2,4-triazole-3-carboxamide] | 100 to 1000
CCOc1ccc(C)nc1-c1ccnc(NC(=O)c2nnc(Cc3ccccc3)[nH]2)c1 [Example 62, 5-benzyl-N-(3-ethoxy-6-methyl-[2,4′-bipyridin]-2′-yl)-4H-1,2,4-triazole-3-carboxamide] | > 10000
O=C(Nc1cc(-c2cc(OCC3CCOCC3)ccc2C(F)(F)F)ncn1)c1nnc(Cc2ccccc2F)[nH]1 [Example 455, 5-(2-fluorobenzyl)-N-(6-(5-((tetrahydro-2H-pyran-4-yl)methoxy)-2-(trifluoromethyl)phenyl)pyrimidin-4-yl)-4H-1,2,4-triazole-3-carboxamide] | ≤ 100
CCOCCOc1ccc(Cl)c(-c2ccnc(NC(=O)c3nnc(CC4CCCC4)[nH]3)c2)c1 [Example 385, N-(4-(2-chloro-5-(2-ethoxyethoxy)phenyl)pyridin-2-yl)-5-(cyclopentylmethyl)-4H-1,2,4-triazole-3-carboxamide] | ≤ 100
CC(C)(O)CCCOc1ccc(Cl)c(-c2ccnc(NC(=O)c3nnc(Cc4c(F)ccc(F)c4F)[nH]3)c2)c1 [Example 353, N-(4-(2-chloro-5-((4-hydroxy-4-methylpentyl)oxy)phenyl)pyridin-2-yl)-5-(2,3,6-trifluorobenzyl)-4H-1,2,4-triazole-3-carboxamide] | ≤ 100
O=C(Nc1cc(-c2cc(OCCCCCO)ccc2Cl)ccn1)c1nnc(Cc2ccccc2F)[nH]1 [Example 376, 5-(2-fluorobenzyl)-N-(4-(2-chloro-5-((5-hydroxypentyl)oxy)phenyl)pyridin-2-yl)-4H-1,2,4-triazole-3-carboxamide] | ≤ 100
O=C(Nc1cc(-c2cc(OCCC3CCOCC3)ccc2Cl)ccn1)c1nnc(CC2CCCCC2)[nH]1 [Example 406, N-(4-(2-chloro-5-(2-(tetrahydro-2H-pyran-4-yl)ethoxy)phenyl)pyridin-2-yl)-5-(cyclohexylmethyl)-4H-1,2,4-triazole-3-carboxamide] | ≤ 100
O=C(Nc1cc(-c2cc(OCCC3CCOCC3)ccc2C(F)(F)F)ccn1)c1nnc(CC2CCCCC2)[nH]1 [Example 310, 5-(cyclohexylmethyl)-N-(4-(5-(2-(tetrahydro-2H-pyran-4-yl)ethoxy)-2-(trifluoromethyl)phenyl)pyridin-2-yl)-4H-1,2,4-triazole-3-carboxamide] | ≤ 100
Cc1ccc(OCC2CCCCO2)cc1-c1ccnc(NC(=O)c2nnc(Cc3ccccc3)[nH]2)c1 (stereo not shown) [Example 123, 5-benzyl-N-(4-(2-methyl-5-((tetrahydro-2H-pyran-2-yl)methoxy)phenyl)pyridin-2-yl)-4H-1,2,4-triazole-3-carboxamide] | ≤ 100

Compound | IC50 [nM]
Cc1ccc(OCCN2CCCCC2)cc1-c1ccnc(NC(=O)c2nnc(Cc3ccccc3)[nH]2)c1 [Example 228, 5-benzyl-N-(4-(2-methyl-5-(2-(piperidin-1-yl)ethoxy)phenyl)pyridin-2-yl)-4H-1,2,4-triazole-3-carboxamide] | 100 to 1000
O=C(Nc1cc(-c2cc(OCCC3CCOCC3)ccc2Cl)ccn1)c1nnc(Cc2ccccc2)[nH]1 [Example 403, 5-benzyl-N-(4-(2-chloro-5-(2-(tetrahydro-2H-pyran-4-yl)ethoxy)phenyl)pyridin-2-yl)-4H-1,2,4-triazole-3-carboxamide] | ≤ 100
Cc1ccc(OCCCC(C)(C)O)cc1-c1cc(NC(=O)c2nnc(Cc3ccccc3F)[nH]2)ncc1C [Example 240, 5-(2-fluorobenzyl)-N-(4-(5-((4-hydroxy-4-methylpentyl)oxy)-2-methylphenyl)-5-methylpyridin-2-yl)-4H-1,2,4-triazole-3-carboxamide] | 100 to 1000
Cc1cc(F)cc(Cc2nnc(C(=O)Nc3cc(-c4cc(OCCCC(C)(C)O)ccc4C)ccn3)[nH]2)c1 [Example 207, 5-(3-fluoro-5-methylbenzyl)-N-(4-(5-((4-hydroxy-4-methylpentyl)oxy)-2-methylphenyl)pyridin-2-yl)-4H-1,2,4-triazole-3-carboxamide] | 100 to 1000
Cc1ccc(C(=O)CC2CCOCC2)cc1-c1ccnc(NC(=O)c2nnc(Cc3ccccc3)[nH]2)c1 [Example 485, 5-benzyl-N-(4-(2-methyl-5-(2-(tetrahydro-2H-pyran-4-yl)acetyl)phenyl)pyridin-2-yl)-4H-1,2,4-triazole-3-carboxamide] | 100 to 1000
CC(C)(O)CCCOc1ccc(Cl)c(-c2ccnc(NC(=O)c3nnc(Cc4cc(F)cc(C(F)(F)F)c4)[nH]3)c2)c1 [Example 348, N-(4-(2-chloro-5-((4-hydroxy-4-methylpentyl)oxy)phenyl)pyridin-2-yl)-5-(3-fluoro-5-(trifluoromethyl)benzyl)-4H-1,2,4-triazole-3-carboxamide] | 1000 to 10000
C=CCOc1ccc(C)c(-c2ccnc(NC(=O)c3nnc(Cc4ccccc4)[nH]3)c2)c1 [Example 82, N-(4-(5-(allyloxy)-2-methylphenyl)pyridin-2-yl)-5-benzyl-4H-1,2,4-triazole-3-carboxamide] | 100 to 1000
O=C(Nc1cc(-c2cc(OCCC3CCOCC3)ccc2Cl)c(F)cn1)c1nnc(Cc2ccccc2F)[nH]1 [Example 428, N-(4-(2-chloro-5-(2-(tetrahydro-2H-pyran-4-yl)ethoxy)phenyl)-5-fluoropyridin-2-yl)-5-(2-fluorobenzyl)-4H-1,2,4-triazole-3-carboxamide] | ≤ 100
Cc1ccc(OCCCC(C)(C)O)cc1-c1ccnc(NC(=O)c2nnc(Cc3cccc(Cl)c3)[nH]2)c1 [Example 185, 5-(3-chlorobenzyl)-N-(4-(5-((4-hydroxy-4-methylpentyl)oxy)-2-methylphenyl)pyridin-2-yl)-4H-1,2,4-triazole-3-carboxamide] | ≤ 100
CC(=O)c1ccc(-c2ccnc(NC(=O)c3nnc(Cc4ccccc4)[nH]3)c2)c(C)c1 [Example 162, N-(4-(4-acetyl-2-methylphenyl)pyridin-2-yl)-5-benzyl-4H-1,2,4-triazole-3-carboxamide] | 100 to 1000
CC(C)(C)OCCOc1ccc(Cl)c(-c2ccnc(NC(=O)c3nnc(CC4CCCC4)[nH]3)c2)c1 [Example 393, N-(4-(5-(2-(tert-butoxy)ethoxy)-2-chlorophenyl)pyridin-2-yl)-5-(cyclopentylmethyl)-4H-1,2,4-triazole-3-carboxamide] | ≤ 100
Cc1ccc(OCCC2CCOCC2)cc1-c1cc(NC(=O)c2nnc(Cc3ccccc3F)[nH]2)ncn1 [Example 446, 5-(2-fluorobenzyl)-N-(6-(2-methyl-5-(2-(tetrahydro-2H-pyran-4-yl)ethoxy)phenyl)pyrimidin-4-yl)-4H-1,2,4-triazole-3-carboxamide] | ≤ 100
Cc1cnc(NC(=O)c2nnc(CC3CCCCC3)[nH]2)cc1-c1cc(OCC2CCOCC2)ccc1F [Example 332, 5-(cyclohexylmethyl)-N-(4-(2-fluoro-5-((tetrahydro-2H-pyran-4-yl)methoxy)phenyl)-5-methylpyridin-2-yl)-4H-1,2,4-triazole-3-carboxamide] | 1000 to 10000
CCN(CC)CCOc1ccc(C)c(-c2ccnc(NC(=O)c3nnc(Cc4ccccc4)[nH]3)c2)c1 [Example 135, 5-benzyl-N-(4-(5-(2-(diethylamino)ethoxy)-2-methylphenyl)pyridin-2-yl)-4H-1,2,4-triazole-3-carboxamide] | ≤ 100
CC(C)(O)CCCCOc1ccc(Cl)c(-c2ccnc(NC(=O)c3nnc(Cc4ccccc4)[nH]3)c2)c1 [Example 367, 5-benzyl-N-(4-(2-chloro-5-((5-hydroxyl-5-methylhexyl)oxy)phenyl)pyridin-2-yl)-4H-1,2,4-triazole-3-carboxamide] | ≤ 100
